Test results as given in patent US8710180B2, “VEGF-specific capture agents, compositions, and methods of using and making” (Indi Molecular, Inc., priority 2011, dated 2014).
Where “and” joins values, the source holds several entries; their conditions need not be identical. Equal values may be shown once. Read-outs that look alike come from different tables or passages of the source. Blank lines part the entries; values can stand above or below the compound they belong to. Where a SMILES comes first, the peptide text is derived from it. Bridges are numbered along the chain shown (N, C = ends). Roman numbers before positions name the chains, in order. Triazole bridges read from a SMILES are 1,4-linked. [ ]: non-standard residue; d: D form. Lys(N3) = [N-]=[N+]=NCCCC[C@H](N)C(=O)O; Az4 = C-terminal azide group; dPra = C#CC[C@@H](N)C(=O)O; code X = not defined here

Tests used:
[1] = plasma protein binding by equilibrium dialysis; type: in vitro ADME; details: 10 μM, 37° C. overnight
Procedure: Equilibrium dialysis techniques were used to separate the fraction of unbound test compound from the fraction that is bound to protein.
Assays were carried out in a 96-well format in a dialysis block constructed from Teflon. The protein matrix was spiked with the test compound at 10 μM (n=2) with a final DMSO concentration of 1% (v/v). The dialysate compartment was loaded with 150 μL phosphate buffer (pH 7.5) and the sample side was loaded with equal volume of the spiked protein matrix. The dialysis plate was then sealed and incubated at 37° C. overnight (18±2 hours). After the incubation, samples were taken from each compartment, diluted with the phosphate buffer followed by addition of acetonitrile and centrifugation. The supernatants were then used for HPLC-MS/MS analysis. A control sample (n=2) was prepared from the spiked protein matrix in the same manner as the assay samples (without dialysis). This control sample served as the basis for the recovery determination. Samples were analyzed by HPLC-MS/MS using selected reaction monitoring. The HPLC conditions consisted of a binary LC pump with autosampler, a C18 column (2×20 mm), and gradient elution. The percent bound to proteins and the recovery were calculated as follows:
[formula] […] The recovery determination served as an indicator of reliability of the calculated protein binding value.

[2] = test system: Human umbilical vein endothelial cells (HUVECs); test: inhibition of HUVEC proliferation; type: cell-based; details: 48 h, read-out: IC50 (antagonist)
Procedure: HUVECs were cultured in M199 medium (pH 7.4) in 5% CO2 at 37° C. for 18 hours. Test compound and/or vehicle were incubated with cells (1.1×10^5/mL) in the presence of heparin (10 μg/mL) and 0.5% FBS at 37° C. for 48 hours. Capture agents were screened at 10, 1, 0.1, 0.01 and 0.001 μM and in duplicate. […] Subsequently, the reagent Calcein AM dye (20 μg/ml) was added for an additional 50 minute incubation period. Fluorescence intensity was read on SpectroFluor Plus plate reader.

[3] = plasma concentrations and pharmacokinetics of VEGF-PCC after a single IV or IP dose in mice, LC-MS/MS; type: in vivo, mouse; details: for Plasma concentration: individual animal; for C0: iv
Text: Test article: VEGF-PCC (IN-VT-1001 Triligand) (PCC monomer) Ac-[…]-Tz4-lfrew-Tz4-eeird (SEQ ID NO: 71). The underlined region inclusive of the Cys residues is cyclized by a disulfide bond, Ac=N-terminal acetylation, and Tz4=1,4-disubstituted 1,2,3-triazole.
The LC-MS/MS system for analysis was comprised of an Agilent 1200 high performance liquid chromatography (HPLC) and a 5500 Qtrap mass spectrometer (Applied Biosystems by Life Technologies, Carlsbad, Calif.).
Concentrations of VEGF-PCC in mouse plasma were determined using a non-validated LC MS/MS assay with Angiotensin I as the internal standard following a solid phase extraction method. Individual VEGF-PCC calibration and QC standards were prepared from the respective intermediate stock solutions by addition to naïve mouse plasma. The target working range of the calibration curve was 50 to 5,000 ng/mL in plasma and the target concentrations of the QC standards were 150 to 3,750 ng/mL in plasma for VEGF-PCC.
Mice received a single IV dose of VEGF-PCC at 1 mg/kg. A summary of the plasma concentrations for individual animals is shown in Table A. Plasma pharmacokinetic parameters are listed in Table 9.
Mice received a single IP dose of VEGF-PCC at 5 mg/kg. A summary of the plasma concentrations for individual animals is shown in Table B. Plasma pharmacokinetic parameters are listed in Table 9.

[4] = target: T1, human VEGF165 binding to VEGFR2 (KDR) (Homo sapiens, UniProt P15692); test: competitive ELISA, inhibition of VEGF165 binding to VEGFR2; details: concentrations tested <50 μM
T1 construct: biotin (chemical labelling, Sulfo-NHS-LC-biotin); purchased R&D Systems (partner VEGFR2-Fc only)
T1 sequence (P15692 27-191 isoform P15692-4): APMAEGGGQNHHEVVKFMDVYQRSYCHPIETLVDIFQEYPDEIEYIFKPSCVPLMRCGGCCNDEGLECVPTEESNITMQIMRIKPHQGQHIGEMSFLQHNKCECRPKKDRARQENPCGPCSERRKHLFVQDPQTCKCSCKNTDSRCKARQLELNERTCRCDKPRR
Procedure: The solutions from the tubes were then transferred to the ELISA plates and incubated for 5 minutes. […] Using an excitation wavelength of 535 nm, fluorescent emission at 595 nm was recorded by Beckman Coulter DTX880 photometer (Brea, Calif.) as a function of capture agent concentration. The titration curves were fit using a four-parameter regression curve fitting program (Origin 8.5, Northampton, Mass.). Concentrations of peptides corresponding to the midpoint absorbance of the titration curve were calculated and used as the IC50 values.

[5] = in vivo, mouse plasma, IP, 5 mg/kg
[6] = in vivo, mouse plasma, IV, 1 mg/kg

- plasma protein binding [1]: higher levels of plasma protein binding
Compound: C=C(NC(=O)[C@@H]1CCCN1C(=O)[C@H](CCC(=O)O)NC(=O)[C@@H](C)C(C)C)C(=O)N[C@@H]1CSSCC(C(=O)N[C@@H](Cc2ccccc2)C(=O)NC(CCC(=O)O)C(=O)NC(CCCN)C(=O)N[C@@H](CC(C)C)C(=O)NC(CCCCn2cc(CC(N)C(=O)NC(Cc3ccccc3)C(=O)N[C@H](CO)C(=O)N[C@H](CCCNC(=N)N)C(=O)NC(CCCCN)C(=O)N[C@@H](C(=O)NC(CCC(=O)O)C(N)=O)C(C)O)nn2)C(=O)O)NC(=O)[C@H](CCC(=O)O)NC(=O)[C@H](Cc2c[nH]c3ccccc23)NC(=O)[C@H](CCC(=O)O)NC(=O)[C@H](Cc2c[nH]c3ccccc23)NC(=O)[C@H](CCSC)NC(=O)[C@H](C(C)C)NC(=O)[C@H](Cc2cnc[nH]2)NC(=O)C([C@@H](C)CC)NC(=O)[C@H](CC(=O)O)NC1=O (stereo partly shown) [Biligand 3]

Compound: Cc1cc(C)c(/C=C2\C(=O)Nc3ccccc32)[nH]1 [SU5416]
- IC50 [2]: 48 nM

- AUC(0-inf) [3, 5]: 32200 ng·h/mL
- AUC(0-t) [3, 5]: 31500 ng·h/mL
- Cmax [3, 5]: 19800 ng/mL
- Tmax [3, 5]: 30 min
- AUC(0-inf) [3, 6]: 6490 ng·h/mL
- AUC(0-t) [3, 6]: 6070 ng·h/mL
- clearance [3, 6]: 2.57 mL/min/kg
- half-life [3, 6]: 35.9 min
- Vd ([3]; in vivo, mouse plasma, IV, 1 mg/kg, read-out: Vss): 0.0967 L/kg
- Plasma concentration ([3]; IP 5 mg/kg, 30 minutes postdose, listed as IN-VT-1001, 5 mg/kg): 19400 ng/mL and 20200 ng/mL and BLQ
- Plasma concentration ([3]; IP 5 mg/kg, 120 minutes postdose, listed as IN-VT-1001, 5 mg/kg): BLQ and 4730 ng/mL and 3640 ng/mL
- Plasma concentration ([3]; IP 5 mg/kg, 240 minutes postdose, listed as IN-VT-1001, 5 mg/kg): 259 ng/mL and 807 ng/mL and BLQ
- Plasma concentration ([3]; IP 5 mg/kg, 360 minutes postdose, listed as IN-VT-1001, 5 mg/kg): 390 ng/mL and BLQ (2×)
- Plasma concentration ([3]; IP 5 mg/kg, 480 minutes postdose): BLQ
- Plasma concentration ([3]; IP 5 mg/kg, 1440 minutes postdose): BLQ
- Plasma concentration ([3]; IV 1 mg/kg, 10 minutes postdose, listed as IN-VT-1001, 1 mg/kg): 7220 ng/mL and 7550 ng/mL and 6110 ng/mL
- Plasma concentration ([3]; IV 1 mg/kg, 30 minutes postdose, listed as IN-VT-1001, 1 mg/kg): 2170 ng/mL and 2210 ng/mL and 3420 ng/mL
- Plasma concentration ([3]; IV 1 mg/kg, 60 minutes postdose, listed as IN-VT-1001, 1 mg/kg): 1840 ng/mL and 2380 ng/mL and 1870 ng/mL
- Plasma concentration ([3]; IV 1 mg/kg, 120 minutes postdose, listed as IN-VT-1001, 1 mg/kg): 551 ng/mL and 400 ng/mL and 514 ng/mL
- Plasma concentration ([3]; IV 1 mg/kg, 240 minutes postdose): BLQ
- Plasma concentration ([3]; IV 1 mg/kg, 360 minutes postdose): BLQ
- Plasma concentration ([3]; IV 1 mg/kg, 1440 minutes postdose): BLQ
- Mean plasma concentration ([3]; mean, IP 5 mg/kg, 480 minutes postdose): 0.00 ng/mL
- Mean plasma concentration ([3]; mean, IP 5 mg/kg, 1440 minutes postdose): 0.00 ng/mL
- Mean plasma concentration ([3]; mean, IV 1 mg/kg, 240 minutes postdose): 0.00 ng/mL
- Mean plasma concentration ([3]; mean, IV 1 mg/kg, 360 minutes postdose): 0.00 ng/mL
- Mean plasma concentration ([3]; mean, IV 1 mg/kg, 1440 minutes postdose): 0.00 ng/mL
- AUC % Ext ([3]; mouse plasma, IP, 5 mg/kg): 2.04%
- AUC % Ext ([3]; mouse plasma, IV, 1 mg/kg): 6.49%
- bioavailability ([3]; mouse, in vivo, ip, 5 mg/kg, mouse plasma, IP, 5 mg/kg, read-out: F (relative bioavailability)): ~99%
- C0 ([3]; mouse, in vivo, 1 mg/kg, mouse plasma, IV, 1 mg/kg, read-out: C0 (back-calculated)): 19100 ng/mL
- level at 10 min ([3]; mouse, plasma, mean, IP 5 mg/kg, 10 minutes postdose, read-out: Mean plasma concentration): 16000 ng/mL
- level at 0.5 h ([3]; mouse, plasma, mean, IP 5 mg/kg, 30 minutes postdose, read-out: Mean plasma concentration): 13200 ng/mL
- level at 1 h ([3]; mouse, plasma, mean, IP 5 mg/kg, 60 minutes postdose, read-out: Mean plasma concentration): 15400 ng/mL
- level at 2 h ([3]; mouse, plasma, mean, IP 5 mg/kg, 120 minutes postdose, read-out: Mean plasma concentration): 2790 ng/mL
- level at 4 h ([3]; mouse, plasma, mean, IP 5 mg/kg, 240 minutes postdose, read-out: Mean plasma concentration): 355 ng/mL
- level at 6 h ([3]; mouse, plasma, mean, IP 5 mg/kg, 360 minutes postdose, read-out: Mean plasma concentration): 130 ng/mL
- level at 0.05 h ([3]; mouse, plasma, mean, IV 1 mg/kg, 3 minutes postdose, read-out: Mean plasma concentration): 14100 ng/mL
- level at 10 min ([3]; mouse, plasma, mean, IV 1 mg/kg, 10 minutes postdose, read-out: Mean plasma concentration): 6960 ng/mL
- level at 0.5 h ([3]; mouse, plasma, mean, IV 1 mg/kg, 30 minutes postdose, read-out: Mean plasma concentration): 2600 ng/mL
- level at 1 h ([3]; mouse, plasma, mean, IV 1 mg/kg, 60 minutes postdose, read-out: Mean plasma concentration): 2030 ng/mL
- level at 2 h ([3]; mouse, plasma, mean, IV 1 mg/kg, 120 minutes postdose, read-out: Mean plasma concentration): 488 ng/mL
Compound: CC[C@@H](C)[C@@H](NC(=O)[C@@H](CCC(=O)O)NC(=O)[C@@H](CCC(=O)O)NC(=O)[C@H](N)Cc1cn(CCCC[C@H](NC(=O)[C@@H](Cc2c[nH]c3ccccc23)NC(=O)[C@@H](CCC(=O)O)NC(=O)[C@@H](CCCNC(=N)N)NC(=O)[C@@H](Cc2ccccc2)NC(=O)[C@@H](CC(C)C)NC(=O)[C@H](N)Cc2cn(CCCC[C@H](NC(=O)[C@H](CC(C)C)NC(=O)[C@H](CCCNC(=N)N)NC(=O)[C@H](CCC(=O)O)NC(=O)[C@H](Cc3ccccc3)NC(=O)[C@@H]3CSSC[C@H](NC(=O)[C@H](CC(N)=O)NC(=O)[C@@H]4CCCN4C(=O)[C@H](CCC(=O)O)NC(=O)[C@@H](NC(C)=O)C(C)C)C(=O)N[C@@H](CC(=O)O)C(=O)N[C@@H]([C@@H](C)CC)C(=O)N[C@@H](Cc4c[nH]cn4)C(=O)N[C@@H](C(C)C)C(=O)N[C@@H](CCSC)C(=O)N[C@@H](Cc4c[nH]c5ccccc45)C(=O)N[C@@H](CCC(=O)O)C(=O)N[C@@H](Cc4c[nH]c5ccccc45)C(=O)N[C@@H](CCC(=O)O)C(=O)N3)C(=O)O)nn2)C(=O)O)nn1)C(=O)N[C@H](CCCNC(=N)N)C(=O)N[C@H](CC(=O)O)C(N)=O [VEGF-PCC] (I: Ac-VEPNCDIHVMWEWECFERL[Lys(N3)]-OH / II: H-[dPra][dL][dF][dR][dE][dW][Lys(N3)]-OH / III: H-[dPra][dE][dE][dI][dR][dD]-NH2; disulfide I:5-I:15; triazole I:20-II:1, II:7-III:1)
- Plasma concentration ([3]; IP 5 mg/kg, 10 minutes postdose, listed as IN-VT-1001, 5 mg/kg): 17500 ng/mL and 17000 ng/mL and 13400 ng/mL
- Plasma concentration ([3]; IP 5 mg/kg, 60 minutes postdose, listed as IN-VT-1001, 5 mg/kg): 10800 ng/mL and 23900 ng/mL and 11500 ng/mL
- Plasma concentration ([3]; IV 1 mg/kg, 3 minutes postdose, listed as IN-VT-1001, 1 mg/kg): 14200 ng/mL and 16200 ng/mL and 12000 ng/mL
- C0 ([3]; mouse, in vivo, 1 mg/kg, assuming IV dose 1 mg/kg, body weight 33 g, blood volume approximately 1.7 mL, read-out: theoretical C0): ~19400 ng/mL

Compound: X-VEPNCDIHVMWEWECFERL-Az4 ({code X}-VEPNCDIHVMWEWECFERL-Az4; cysteine pairing not given here; reading uncertain) [anchor, reference compound]
- blocking of receptor binding at the concentrations tested [4]: Neither the anchor nor Biligand 2 blocked receptor binding
